Test results from patent publication US9744164B2, “Neuroprotective polyphenol analogs” (Salk Institute for Biological Studies, priority 2011, dated 2017).
Where two headings read alike, the source gives them in different places.

Assays:
N9 microglial cells = assay: anti-inflammatory assay, LPS-induced microglial activation (NO release); format: cell-based, mouse; conditions: bacterial lipopolysaccharide, derivative 1-10 μM, 24 hr
Method: Anti-inflammatory assay. Mouse N9 microglial cells plated in DME with 7.5% DFCS were treated with 10 μg/ml bacterial lipopolysaccharide (Sigma) alone or in the presence of the Fisetin derivatives (1-10 μM) or Fisetin (10 μM) as a positive control. After 24 hr the medium was removed, spun briefly to remove floating cells and 100 μl assayed for NO using 100 μl of the Griess Reagent (Sigma) in a 96 well plate. After incubation for 10 min at room temperature the absorbance at 550 nm was read on a microplate reader.
Three secondary screens allowed assessment of three key activities of Fisetin that are highly relevant to stroke, as well as other neurological disorders: maintenance of glutathione (GSH), the major endogenous cellular antioxidant, inhibition of LPS-induced microglial activation, an indicator of anti-inflammatory activity and PC12 cell differentiation, a measure of neurotrophic activity. All of these activities are relevant to the nerve cell loss seen in stroke (Gelderblom, et al., Stroke. 2009, 40 (5), 1849-1857; Pandya, et al., Cent. Nerv. Syst. Agents. Med. Chem. (2011) Apr. 27; Lewerenz, et al., J. Neurochem. (2010) 113 (2), 502-504). […] To assess GSH maintenance, total intracellular GSH levels after a 24 hr treatment with the compound both in the absence and presence of glutamate, an inducer of GSH loss and oxidative stress (Tan, et al., Curr. Top. Med. Chem. (2001) 1, 497-506; Maher, et al., Free Radical Research. (2006) 40 (10), 1105-1111) was measured Inhibition of LPS-induced microglial activation was determined by treating N9 mouse microglial cells with LPS alone and in the presence of the compounds and assaying NO release into the medium 24 hr later (Zheng, et al., Int. Immunopharmacol. (2008) 8, (3), 484-494). PC12 cell differentiation was determined by treating PC12 cells with the compounds and looking at neurite outgrowth after 24 hr. In all cases, Fisetin was used as a positive control (Sagara, et al., J. Neurochem. (2004) 90, 1144-1155).
The roles of the four different hydroxyl groups in the activity of Fisetin were studied. […] Cell viability was determined after 24 hr by the MTT assay. The ability to maintain GSH (GSH) was determined by treating HT22 cells with different doses of each derivative (1-10 μM) in the presence of 5 mM glutamate. After 24 hr cell extracts were prepared and analyzed for total GSH. Fisetin (10 μM) was used as a positive control. The ability to induce PC12 cell differentiation (PC12 diff'n) was determined by treating PC12 cells in N2 medium with different doses of each derivative (1-10 μM) for 24 hr. Differentiation was assessed by visual inspection with Fisetin (10 μM) as a positive control. Anti-inflammatory activity (microglia) was assessed in N9 microglial cells treated with bacterial lipopolysaccharide alone or in the presence different doses of each derivative (1-10 μM) for 24 hr. Fisetin was used as a positive control. TEAC values, a measure of direct antioxidant activity, were determined using the ABTS+ decolorization assay.

Nrf2 = Nrf2 induction, SDS-PAGE and Western blotting of nuclear extracts; format: cell-based; conditions: cells treated 1, 2 and 4 hr at most protective concentration
Method: SDS-PAGE and immunoblotting. For immunoblotting of Nrf2, nuclear extracts were prepared as described (Schreiber, et al., Nucleic Acids Res. (1989) 17 (15), 6419) from untreated cells and cells treated with the Fisetin derivatives for 1, 2 and 4 hr. Fisetin was used as a positive control. […] Protein concentrations were determined using the BCA protein assay (Pierce). Equal amounts of protein were solubilized in 2.5× SDS-sample buffer, separated on 10% SDS-polyacrylamide gels and transferred to nitrocellulose. Equal loading and transfer of the samples was confirmed by staining the nitrocellulose with Ponceau-S. Transfers were blocked for 1 hr at room temperature with 5% nonfat milk in TBS/0.1% Tween 20 and then incubated overnight at 4° C. in the primary antibody diluted in 5% BSA in TBS/0.05% Tween 20. The primary antibodies used were: anti-Nrf2 (#SC13032; 1/1000) from Santa Cruz Biotechnology (Santa Cruz, Calif.) and anti-β-actin (#5125; 1/20,000) from Cell Signaling (Beverly, Mass.). The transfers were rinsed with TB S/0.05% Tween 20 and incubated for 1 hr at room temperature in horseradish peroxidase-goat anti-rabbit or goat anti-mouse (Biorad, Hercules, Calif.) diluted 1/5000 in 5% nonfat milk in TBS/0.1% Tween 20. The immunoblots were developed with the Super Signal reagent (Pierce, Rockford, Ill.).
The transcription factor Nrf2 plays a key role in regulating GSH metabolism in many different cell types (Lewerenz, et al., Antioxidant & Redox Signaling. (2011) 14, 1449-1465). We have shown that Fisetin can induce Nrf2 and this correlates with its ability to enhance GSH levels (Maher, P. et al., Genes. Nutr. (2009) Sep. 10). To determine if the derivatives which can maintain GSH levels do so by increasing Nrf2 we looked at Nrf2 levels in the nuclei of derivative-treated cells using Fisetin as a positive control (Table 4). […] This was particularly true for the derivatives based on the quinoline scaffold where none of them increased Nrf2 despite being very effective at maintaining GSH levels.
The ability of the derivatives that maintain GSH levels to induce the transcription factor Nrf2 was assayed by SDS-PAGE and Western blotting of nuclear extracts of untreated and derivative-treated cells. Fisetin treatment was used as a positive control.

[1] = tested on: embolic strokes in rabbits; assay: rabbit small clot embolic stroke model (RSCEM); format: in vivo
Excerpt: The ability of polyphenol analogs to treat, prevent and/or mitigate one or more symptoms of stroke can also be evaluated in in vivo assays. Such assays are known in the art and find use. One applicable in vivo screening assay is the rabbit clot embolic stroke model, discussed, e.g., in Lapchak, et al., Stroke (2002) 33(9):2279-84 and Lapchak, Exp Neurol. (2007) 205(2):407-13. The rabbit small clot embolic stroke model (RSCEM) and rabbit large clot embolic stroke model (RLCEM) can be used to determine the potential neuroprotective properties and safety profile of test polyphenol analogs after an embolic stroke. Rabbits are embolized by injecting small blood clots (RSCEM) or large blood clots (RLCEM) into the cerebral circulation. Behavioral analysis is conducted 24 hours later, allowing for determination of the effective stroke dose (ES50) or clot amount (milligrams) that produces severe neurological deficits in 50% of rabbits. A drug is considered neuroprotective if it increases the ES50 compared with the vehicle-treated control group.
Either vehicle or bolus injections of chlorogenic acid were administered intravenously over 1 minute starting 5 minutes following embolization using a suspension of small-sized blood clots. In this series of studies, CGA was administered at 50 mg/kg. Behavioral analysis was conducted at 24 hours following treatment, which allowed for the construction of quantal dose-response analysis curves. […] For the superimposed graphs, normal animals are plotted on the y-axis at 0% and abnormal animals are plotted at 100%. […] Moreover, CGA increased the P50 value (the clot dose that produces abnormality in 50% of a treatment group) compared to vehicle control. For a detailed discussion of the methods used to fit the quantal data to a sigmoidal curve, see Zivin and Waud. The pharmacology of chlorogenic acid in the rabbit small clot embolic stroke model (RSCEM) has been published (Lapchak, Exp Neurol. 2007 205(2):407-13). In the manuscript, it is shown that CGA has a therapeutic window of 60 minutes in the RSCEM. FIG. 2 presents the therapeutic window data.
Using the RSCEM assay described above for CGA, the effects of Fisetin (50 mg/kg) on behavioral outcome measured 24 hours following embolization is tested.

[2] = tested on: embolic strokes in rabbits; conditions: RSCEM, as published in the manuscript; cited from earlier work
PC12 cells = assay: glucose starvation assay; format: cell-based; conditions: PC12 cells starved for glucose, MTT 24 hr
Method: FIG. 5C—PC12 cells were glucose-deprived then were incubates in the absence or presence of Baicalein. Cell viability was determined 24 hr later using the MTT assay. […] When these cells are starved for glucose, there is approximately 70% maximal survival in the presence of NGF. Baicalein promotes over 80% survival (FIG. 5C).

Molecule | microglia (anti-inflammatory activity) (N9 microglial cells) [%] | Nrf2 (induction of transcription factor Nrf2) (Nrf2) | also measured
Cc1cc(O)c(C(=O)/C=C/c2ccc(O)c(O)c2)cc1C [CMS-011, (E)-3-(3,4-dihydroxyphenyl)-1-(2-hydroxy-4,5-dimethylphenyl)prop-2-en-1-one] | 94 | Yes | –
O=C(/C=C/c1ccc(O)c(O)c1)c1ccc2ccccc2c1O [CMS-034, (E)-3-(3,4-dihydroxyphenyl)-1-(1-hydroxynaphthalen-2-yl)prop-2-en-1-one] | 75 | Yes | –
Cc1cc2oc(-c3ccc(N(C)C)cc3)c(O)c(=O)c2cc1C [CMS-117, 2-(4-(dimethylamino)phenyl)-3-hydroxy-6,7-dimethyl-4H-chromen-4-one] | 11 | No | –
CN(C)c1ccc(-c2oc3c(ccc4ccccc43)c(=O)c2O)cc1 [CMS-118, 2-(4-(dimethylamino)phenyl)-3-hydroxy-4H-benzo[h]chromen-4-one] | 0 | No | –
Cc1cc2oc(-c3ccc(N4CCCC4)cc3)c(O)c(=O)c2cc1C [CMS-122, 3-hydroxy-6,7-dimethyl-2-(4-(pyrrolidin-1-yl)phenyl)-4H-chromen-4-one] | 0 | No | –
O=C(/C=C/c1ccc(O)c(O)c1)O[C@@H]1C[C@](O)(C(=O)O)C[C@@H](O)[C@H]1O [Chlorogenic Acid, 1,3,4,5-tetrahydroxy-cyclohexanecarboxylic acid 3-(3,4-dihydroxycinnamate)] | – | – | behavior when administered 1 hour following embolization ([1]; 1 hour following embolization): effective at improving behavior; behavior when administered 3 hours following embolization ([1]; 3 hours following embolization): neither improve behavior; therapeutic window ([1]; time post-embolization, FIG. 2): 60 min; therapeutic window [2]: 60 min
NGF: NGF, comparator giving approximately 70% maximal survival of glucose-starved PC12 cells | – | – | survival (PC12 cells): approximately 70%
